Numbers after ± are expanded uncertainties.
Conditions: 101.33 kPa, Liquid; for speed of sound: Pulse-echo method; for mass density: Vibrating tube method

CCCC(=O)[O-].C[NH2+]CCO [N-methyl-2-hydroxyethylammonium butanoate]
Conditions | mass density [kg/m3] | speed of sound [m/s] | viscosity [mPa·s]
308.15 K | 1032.53 ± 2.2 | 1583.1 ± 2.1 | 162.8 ± 13
308.4 K | 1032.37 ± 2.2 | 1582.3 ± 2.1 | –
308.65 K | 1032.2 ± 2.2 | 1581.5 ± 2.1 | –
308.9 K | 1032.03 ± 2.2 | 1580.7 ± 2.1 | –
309.15 K | 1031.86 ± 2.2 | 1580 ± 2.1 | –
309.4 K | 1031.69 ± 2.2 | 1579.2 ± 2.1 | –
309.65 K | 1031.52 ± 2.2 | 1578.4 ± 2.1 | –
309.9 K | 1031.35 ± 2.2 | 1577.6 ± 2.1 | –
310.15 K | 1031.18 ± 2.2 | 1576.8 ± 2.1 | –
310.4 K | 1031.01 ± 2.2 | 1576 ± 2.1 | –
310.65 K | 1030.85 ± 2.2 | 1575.3 ± 2.1 | 141.4 ± 10
310.91 K | 1030.68 ± 2.2 | 1574.5 ± 2.1 | –
311.16 K | 1030.51 ± 2.2 | 1573.7 ± 2.1 | –
311.4 K | 1030.34 ± 2.2 | 1572.9 ± 2.1 | –
311.65 K | 1030.17 ± 2.2 | 1572.2 ± 2.1 | –
311.91 K | 1030 ± 2.2 | 1571.4 ± 2.1 | –
312.16 K | 1029.83 ± 2.2 | 1570.6 ± 2.1 | –
312.41 K | 1029.65 ± 2.2 | 1569.8 ± 2.1 | –
312.65 K | – | – | 127.1 ± 8.3
312.66 K | 1029.49 ± 2.2 | 1569 ± 2.1 | –
312.91 K | 1029.32 ± 2.2 | 1568.3 ± 2.1 | –
313.16 K | 1029.14 ± 2.2 | 1567.5 ± 2.1 | –
313.4 K | 1028.97 ± 2.2 | 1566.7 ± 2.1 | –
313.66 K | 1028.8 ± 2.2 | 1565.9 ± 2.1 | –
313.9 K | 1028.64 ± 2.2 | 1565.2 ± 2.1 | –
314.15 K | 1028.46 ± 2.2 | 1564.4 ± 2.1 | –
314.4 K | 1028.29 ± 2.2 | 1563.6 ± 2.1 | –
314.65 K | 1028.12 ± 2.2 | 1562.9 ± 2.1 | –
314.9 K | 1027.95 ± 2.2 | 1562.1 ± 2.1 | –
315.15 K | 1027.78 ± 2.2 | 1561.3 ± 2.1 | 107.78 ± 5.9
315.41 K | 1027.61 ± 2.2 | 1560.5 ± 2.1 | –
315.65 K | 1027.43 ± 2.2 | 1559.8 ± 2.1 | –
315.91 K | 1027.26 ± 2.2 | 1559 ± 2.1 | –
316.16 K | 1027.09 ± 2.2 | 1558.2 ± 2.1 | –
316.41 K | 1026.92 ± 2.2 | 1557.5 ± 2.1 | –
316.66 K | 1026.75 ± 2.2 | 1556.7 ± 2.1 | –
316.91 K | 1026.58 ± 2.2 | 1555.9 ± 2.1 | –
317.16 K | 1026.41 ± 2.2 | 1555.2 ± 2.1 | –
317.4 K | 1026.23 ± 2.2 | 1554.3 ± 2.1 | –
317.66 K | 1026.06 ± 2.2 | 1553.4 ± 2.1 | –
317.91 K | 1025.89 ± 2.2 | 1552.6 ± 2.1 | –
318.15 K | – | – | 93.33 ± 4.3
318.16 K | 1025.72 ± 2.2 | 1551.9 ± 2.1 | –
318.41 K | 1025.55 ± 2.2 | 1551.1 ± 2.1 | –
318.65 K | 1025.37 ± 2.2 | 1550.3 ± 2.1 | –
318.9 K | 1025.2 ± 2.2 | 1549.5 ± 2.1 | –
319.16 K | 1025.03 ± 2.2 | 1548.7 ± 2.1 | –
319.41 K | 1024.86 ± 2.2 | 1548 ± 2.1 | –
319.65 K | 1024.69 ± 2.2 | 1547.2 ± 2.1 | –
319.91 K | 1024.51 ± 2.2 | 1546.4 ± 2.1 | –
320.15 K | – | – | 79.57 ± 3.1
320.16 K | 1024.34 ± 2.2 | 1545.6 ± 2.1 | –
320.41 K | 1024.17 ± 2.2 | 1544.8 ± 2.1 | –
320.65 K | 1024 ± 2.2 | 1544 ± 2.1 | –
320.91 K | 1023.82 ± 2.2 | 1543.3 ± 2.1 | –
321.15 K | 1023.65 ± 2.2 | 1542.5 ± 2.1 | –
321.41 K | 1023.47 ± 2.2 | 1541.7 ± 2.1 | –
321.66 K | 1023.3 ± 2.2 | 1540.9 ± 2.1 | –
321.9 K | 1023.13 ± 2.2 | 1540.1 ± 2.1 | –
322.15 K | 1022.96 ± 2.2 | 1539.3 ± 2.1 | –
322.41 K | 1022.78 ± 2.2 | 1538.6 ± 2.1 | –
322.65 K | 1022.61 ± 2.2 | 1537.8 ± 2.1 | –
322.91 K | 1022.43 ± 2.2 | 1537 ± 2.1 | –
323.15 K | – | – | 71.53 ± 2.3
323.16 K | 1022.26 ± 2.2 | 1536.2 ± 2.1 | –
323.41 K | 1022.08 ± 2.2 | 1535.4 ± 2.1 | –
323.65 K | 1021.91 ± 2.2 | 1534.7 ± 2.1 | –
323.91 K | 1021.74 ± 2.2 | 1533.9 ± 2.1 | –
324.16 K | 1021.56 ± 2.2 | 1533.1 ± 2.1 | –
324.41 K | 1021.39 ± 2.2 | 1532.3 ± 2.1 | –
324.65 K | 1021.22 ± 2.2 | 1531.5 ± 2.1 | –
324.9 K | 1021.04 ± 2.2 | 1530.8 ± 2.1 | –
325.16 K | 1020.87 ± 2.2 | 1530 ± 2.1 | –
325.4 K | 1020.69 ± 2.2 | 1529.2 ± 2.1 | –
325.66 K | 1020.52 ± 2.2 | 1528.4 ± 2.1 | –
325.9 K | 1020.35 ± 2.2 | 1527.7 ± 2.1 | –
326.16 K | 1020.17 ± 2.2 | 1526.9 ± 2.1 | –
326.41 K | 1019.99 ± 2.2 | 1526.1 ± 2.1 | –
326.66 K | 1019.82 ± 2.2 | 1525.3 ± 2.1 | –
326.9 K | 1019.65 ± 2.2 | 1524.5 ± 2.1 | –
327.16 K | 1019.47 ± 2.2 | 1523.7 ± 2.1 | –
327.4 K | 1019.29 ± 2.2 | 1522.9 ± 2.1 | –
327.66 K | 1019.12 ± 2.2 | 1522.2 ± 2.1 | –
327.9 K | 1018.95 ± 2.2 | 1521.4 ± 2.1 | –
328.15 K | 1018.77 ± 2.2 | 1520.6 ± 2.1 | –
328.41 K | 1018.6 ± 2.2 | 1519.8 ± 2.1 | –
328.66 K | 1018.42 ± 2.2 | 1519 ± 2.1 | –
328.9 K | 1018.25 ± 2.2 | 1518.2 ± 2.1 | –
329.16 K | 1018.07 ± 2.2 | 1517.4 ± 2.1 | –
329.4 K | 1017.9 ± 2.2 | 1516.6 ± 2.1 | –
329.65 K | 1017.72 ± 2.2 | 1515.9 ± 2.1 | –
329.9 K | 1017.54 ± 2.2 | 1515.1 ± 2.1 | –
330.16 K | 1017.37 ± 2.2 | 1514.3 ± 2.1 | –
330.41 K | 1017.19 ± 2.2 | 1513.5 ± 2.1 | –
330.66 K | 1017.01 ± 2.2 | 1512.7 ± 2.1 | –
330.91 K | 1016.84 ± 2.2 | 1511.9 ± 2.1 | –
331.16 K | 1016.66 ± 2.2 | 1511.1 ± 2.1 | –
331.41 K | 1016.48 ± 2.2 | 1510.3 ± 2.1 | –
331.66 K | 1016.3 ± 2.2 | 1509.6 ± 2.1 | –
331.91 K | 1016.13 ± 2.2 | 1508.8 ± 2.1 | –
332.16 K | 1015.96 ± 2.2 | 1508 ± 2.1 | –
332.41 K | 1015.78 ± 2.2 | 1507.2 ± 2.1 | –
332.66 K | 1015.6 ± 2.2 | 1506.4 ± 2.1 | –
332.91 K | 1015.43 ± 2.2 | 1505.6 ± 2.1 | –
333.16 K | 1015.25 ± 2.2 | 1504.9 ± 2.1 | –
333.41 K | 1015.07 ± 2.2 | 1504.1 ± 2.1 | –
333.66 K | 1014.89 ± 2.2 | 1503.3 ± 2.1 | –
333.91 K | 1014.72 ± 2.2 | 1502.5 ± 2.1 | –
334.16 K | 1014.54 ± 2.2 | 1501.7 ± 2.1 | –
334.41 K | 1014.36 ± 2.2 | 1500.9 ± 2.1 | –
334.66 K | 1014.18 ± 2.2 | 1500.2 ± 2.1 | –
334.91 K | 1014.01 ± 2.2 | 1499.4 ± 2.1 | –
335.16 K | 1013.83 ± 2.1 | 1498.6 ± 2.1 | –
335.41 K | 1013.65 ± 2.1 | 1497.8 ± 2.1 | –
335.66 K | 1013.47 ± 2.1 | 1497 ± 2.1 | –
335.91 K | 1013.3 ± 2.1 | 1496.2 ± 2.1 | –
336.16 K | 1013.12 ± 2.1 | 1495.4 ± 2.1 | –
336.41 K | 1012.94 ± 2.1 | 1494.7 ± 2.1 | –
336.66 K | 1012.76 ± 2.1 | 1493.9 ± 2.1 | –
336.9 K | 1012.58 ± 2.1 | 1493.1 ± 2.1 | –
337.16 K | 1012.4 ± 2.1 | 1492.3 ± 2.1 | –
337.4 K | 1012.22 ± 2.1 | 1491.5 ± 2.1 | –
337.66 K | 1012.04 ± 2.1 | 1490.8 ± 2.1 | –
337.9 K | 1011.86 ± 2.1 | 1490 ± 2.1 | –
338.15 K | 1011.69 ± 2.1 | 1489.3 ± 2.1 | –

Reference: the NIST ThermoML archive (doi:10.1021/je900550v)
